Reference: patent publication US8822451B2, “Modulators of ATP-binding cassette transporters” (Vertex Pharmaceuticals Incorporated, priority 2005, dated 2014)
pEC50: −log10 of the molar value.

Biological target: T1, […]F508-CFTR (Homo sapiens, UniProt P13569, DEL508-508)
T1 construct: expressed in transfected cells
Assay: Assay results of Table 3: ΔF508-CFTR modulation, membrane potential optical assay (assay format not stated)
Format: cell-based
Conditions: NIH3T3 mouse fibroblasts stably expressing […]F508-CFTR (optical assays); for Efficacy: efficacy range; for pEC50: potency range
Excerpt: A. Membrane Potential Optical Methods for Assaying […]F508-CFTR Modulation Properties of Compounds
The optical membrane potential assay utilized voltage-sensitive FRET sensors described by Gonzalez and Tsien (See, Gonzalez, J. E. and R. Y. Tsien (1995) “Voltage sensing by fluorescence resonance energy transfer in single cells” Biophys J 69(4): 1272-80, and Gonzalez, J. E. and R. Y. Tsien (1997) “Improved indicators of cell membrane potential that use fluorescence resonance energy transfer” Chem Biol 4(4): 269-77) in combination with instrumentation for measuring fluorescence changes such as the Voltage/Ion Probe Reader (VIPR) (See, Gonzalez, J. E., K. Oades, et al. (1999) “Cell-based assays and instrumentation for screening ion-channel targets” Drug Discov Today 4(9): 431-439).
These voltage sensitive assays are based on the change in fluorescence resonant energy transfer (FRET) between the membrane-soluble, voltage-sensitive dye, DiSBAC2(3), and a fluorescent phospholipid, CC2-DMPE, which is attached to the outer leaflet of the plasma membrane and acts as a FRET donor. Changes in membrane potential (Vm) cause the negatively charged DiSBAC2(3) to redistribute across the plasma membrane and the amount of energy transfer from CC2-DMPE changes accordingly. The changes in fluorescence emission were monitored using VIPR™ II, which is an integrated liquid handler and fluorescent detector designed to conduct cell-based screens in 96- or 384-well microtiter plates.
To identify small molecules that correct the trafficking defect associated with ΔF508-CFTR; a single-addition HTS assay format was developed. The cells were incubated in serum-free medium for 16 hrs at 37° C. in the presence or absence (negative control) of test compound. As a positive control, cells plated in 384-well plates were incubated for 16 hrs at 27° C. to “temperature-correct” […]F508-CFTR. The cells were subsequently rinsed 3× with Krebs Ringers solution and loaded with the voltage-sensitive dyes. To activate […]F508-CFTR, 10 µM forskolin and the CFTR potentiator, genistein (20 µM), were added along with Cl^−-free medium to each well. The addition of Cl^−-free medium promoted Cl^− efflux in response to […]F508-CFTR activation and the resulting membrane depolarization was optically monitored using the FRET-based voltage-sensor dyes.
To identify potentiators of […]F508-CFTR, a double-addition HTS assay format was developed. During the first addition, a Cl^−-free medium with or without test compound was added to each well. After 22 sec, a second addition of Cl^−-free medium containing 2-10 µM forskolin was added to activate […]F508-CFTR. The extracellular Cl^− concentration following both additions was 28 mM, which promoted Cl^− efflux in response to […]F508-CFTR activation and the resulting membrane depolarization was optically monitored using the FRET-based voltage-sensor dyes.
Bath Solution #1: (in mM) NaCl 160, KCl 4.5, CaCl2 2, MgCl2 1, HEPES 10, pH 7.4 with NaOH.
Chloride-free bath solution: Chloride salts in Bath Solution #1 are substituted with gluconate salts.
CC2-DMPE: Prepared as a 10 mM stock solution in DMSO and stored at −20° C.
DiSBAC2(3): Prepared as a 10 mM stock in DMSO and stored at −20° C.
NIH3T3 mouse fibroblasts stably expressing […]F508-CFTR are used for optical measurements of membrane potential. The cells are maintained at 37° C. in 5% CO2 and 90% humidity in Dulbecco's modified Eagle's medium supplemented with 2 mM glutamine, 10% fetal bovine serum, 1× NEAA, […]-ME, 1× pen/strep, and 25 mM HEPES in 175 cm^2 culture flasks. For all optical assays, the cells were seeded at 30,000/well in 384-well matrigel-coated plates and cultured for 2 hrs at 37° C. before culturing at 27° C. for 24 hrs for the potentiator assay. For the correction assays, the cells are cultured at 27° C. or 37° C. with and without compounds for 16-24 hoursB.

T1 sequence (P13569 with tags, fused parts or gaps DEL508-508): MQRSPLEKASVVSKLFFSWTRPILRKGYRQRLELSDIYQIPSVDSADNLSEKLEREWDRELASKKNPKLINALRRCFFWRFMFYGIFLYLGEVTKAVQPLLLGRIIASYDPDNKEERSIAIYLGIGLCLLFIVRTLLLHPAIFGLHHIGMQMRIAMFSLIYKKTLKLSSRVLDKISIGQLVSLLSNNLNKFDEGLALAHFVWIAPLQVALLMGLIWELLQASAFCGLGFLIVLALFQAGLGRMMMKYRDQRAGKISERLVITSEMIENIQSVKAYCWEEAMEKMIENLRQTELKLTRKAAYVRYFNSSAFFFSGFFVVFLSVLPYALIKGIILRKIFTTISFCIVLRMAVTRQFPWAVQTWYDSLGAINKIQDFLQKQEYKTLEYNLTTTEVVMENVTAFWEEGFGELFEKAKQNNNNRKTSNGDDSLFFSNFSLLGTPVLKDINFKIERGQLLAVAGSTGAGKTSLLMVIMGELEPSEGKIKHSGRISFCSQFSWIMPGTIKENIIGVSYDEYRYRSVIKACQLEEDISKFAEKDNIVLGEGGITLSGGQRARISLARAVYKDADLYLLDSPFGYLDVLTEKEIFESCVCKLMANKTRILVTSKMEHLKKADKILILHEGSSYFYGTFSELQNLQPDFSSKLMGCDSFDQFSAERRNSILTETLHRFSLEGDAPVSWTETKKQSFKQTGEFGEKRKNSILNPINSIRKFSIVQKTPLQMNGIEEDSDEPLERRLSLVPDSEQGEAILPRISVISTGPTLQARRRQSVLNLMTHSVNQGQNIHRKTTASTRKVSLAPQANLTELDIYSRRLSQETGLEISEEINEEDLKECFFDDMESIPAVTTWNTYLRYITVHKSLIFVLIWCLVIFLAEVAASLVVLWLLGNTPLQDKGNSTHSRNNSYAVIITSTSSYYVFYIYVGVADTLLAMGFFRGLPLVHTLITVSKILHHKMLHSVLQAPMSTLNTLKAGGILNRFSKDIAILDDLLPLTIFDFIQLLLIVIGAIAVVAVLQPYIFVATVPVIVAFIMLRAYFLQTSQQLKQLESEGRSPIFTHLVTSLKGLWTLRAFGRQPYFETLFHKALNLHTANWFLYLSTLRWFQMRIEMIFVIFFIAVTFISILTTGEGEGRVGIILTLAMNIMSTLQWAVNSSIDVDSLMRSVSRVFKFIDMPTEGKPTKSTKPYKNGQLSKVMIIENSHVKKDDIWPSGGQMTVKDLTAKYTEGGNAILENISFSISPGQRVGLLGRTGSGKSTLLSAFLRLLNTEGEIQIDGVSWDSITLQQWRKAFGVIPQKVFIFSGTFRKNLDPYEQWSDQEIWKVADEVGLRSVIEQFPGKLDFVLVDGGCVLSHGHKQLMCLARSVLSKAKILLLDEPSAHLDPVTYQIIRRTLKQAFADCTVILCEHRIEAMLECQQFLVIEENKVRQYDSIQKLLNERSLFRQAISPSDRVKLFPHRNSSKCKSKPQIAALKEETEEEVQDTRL

Compound	Efficacy	pEC50
CN(C)C(=O)c1cc(-c2ccccc2)nc(N2CCCCCC2)n1 [Compound 1]	++ (++ corresponds to Efficacy between 100 and 50)	< 5.30
CNC(=O)c1cc(-c2ccccc2)nc(NCc2ccco2)n1 [Compound 2]	++ (++ corresponds to Efficacy between 100 and 50)	< 5.30
NC(=O)c1cc(-c2ccccc2)nc(N2CC=C(c3ccc(Cl)cc3)CC2)n1 [Compound 3]	++ (++ corresponds to Efficacy between 100 and 50)	< 5.30
CCN(CCO)c1nc(C(N)=O)cc(-c2ccccc2)n1 [Compound 4]	+++ (+++ corresponds to Efficacy greater than 100)	< 5.30
CCOc1ccccc1-c1cc(C(N)=O)nc(N(CC)CC)n1 [Compound 5]	+++ (+++ corresponds to Efficacy greater than 100)	> 6.00
NC(=O)c1cc(-c2cccc(F)c2F)nc(N2CCCCC2)n1 [Compound 6]	++ (++ corresponds to Efficacy between 100 and 50)	5.30 to 6.00
CCN(C)c1nc(C(N)=O)cc(-c2ccccc2)n1 [Compound 7]	+++ (+++ corresponds to Efficacy greater than 100)	5.30 to 6.00
COc1ccc(OC)c(-c2cc(C(N)=O)nc(N3CCCCC3)n2)c1 [Compound 8]	++ (++ corresponds to Efficacy between 100 and 50)	5.30 to 6.00
CN(C)c1nc(C(N)=O)cc(-c2ccccc2)n1 [Compound 9]	++ (++ corresponds to Efficacy between 100 and 50)	< 5.30
CCN(CC)c1nc(C(N)=O)cc(-c2ccc(C(F)(F)F)cc2)n1 [Compound 10]	++ (++ corresponds to Efficacy between 100 and 50)	< 5.30
Cc1cccc(-c2cc(C(N)=O)nc(N3CCCCC3)n2)c1C [Compound 11]	++ (++ corresponds to Efficacy between 100 and 50)	5.30 to 6.00
CCN(CC)c1nc(C(N)=O)cc(-c2cc(Cl)ccc2OC)n1 [Compound 12]	++ (++ corresponds to Efficacy between 100 and 50)	> 6.00
CCCCN(CC#N)c1nc(C(N)=O)cc(-c2ccccc2)n1 [Compound 13]	++ (++ corresponds to Efficacy between 100 and 50)	< 5.30
C=CCN(C)c1nc(C(N)=O)cc(-c2ccccc2)n1 [Compound 14]	+++ (+++ corresponds to Efficacy greater than 100)	5.30 to 6.00
COc1cccc(-c2cc(C(N)=O)nc(N3CC=CCC3)n2)c1 [Compound 15]	++ (++ corresponds to Efficacy between 100 and 50)	< 5.30
NC(=O)c1cc(-c2ccccc2)nc(N2CCCCC2)n1 [Compound 16]	++ (++ corresponds to Efficacy between 100 and 50)	5.30 to 6.00
CC(C)OC(=O)c1cccc(-c2cc(C(N)=O)nc(N3CCCCC3)n2)c1 [Compound 17]	++ (++ corresponds to Efficacy between 100 and 50)	5.30 to 6.00
CN(Cc1cccnc1)c1nc(C(N)=O)cc(-c2ccccc2)n1 [Compound 18]	++ (++ corresponds to Efficacy between 100 and 50)	< 5.30
CCCCN(CCO)c1nc(C(N)=O)cc(-c2ccccc2)n1 [Compound 19]	++ (++ corresponds to Efficacy between 100 and 50)	5.30 to 6.00
CCOc1ccc(-c2cc(C(N)=O)nc(N(CC)CC)n2)cc1 [Compound 20]	++ (++ corresponds to Efficacy between 100 and 50)	> 6.00
CCN(CC)c1nc(C(N)=O)cc(-c2ccc(C)s2)n1 [Compound 21]	+++ (+++ corresponds to Efficacy greater than 100)	5.30 to 6.00
COc1ccc(-c2cc(C(N)=O)nc(N3CCCCC3)n2)cn1 [Compound 22]	++ (++ corresponds to Efficacy between 100 and 50)	< 5.30

Compound	Efficacy	pEC50
CCCN(CCC)c1nc(C(N)=O)cc(-c2ccccc2)n1 [Compound 23]	++ (++ corresponds to Efficacy between 100 and 50)	5.30 to 6.00
CCN(CC)c1nc(C(N)=O)cc(-c2ccccc2Oc2ccccc2)n1 [Compound 24]	++ (++ corresponds to Efficacy between 100 and 50)	> 6.00
NC(=O)c1cc(-c2ccoc2)nc(N2CCCCC2)n1 [Compound 25]	+ (+ corresponds to Efficacy less than 50)	< 5.30
NC(=O)c1cc(-c2ccccc2)nc(N2CCCC2)n1 [Compound 26]	++ (++ corresponds to Efficacy between 100 and 50)	5.30 to 6.00
NC(=O)c1cc(-c2ccccc2)nc(NCC2CC2)n1 [Compound 27]	++ (++ corresponds to Efficacy between 100 and 50)	< 5.30
NC(=O)c1cc(-c2ccccc2)nc(N2CCC(C(=O)c3ccc(Cl)cc3)CC2)n1 [Compound 28]	++ (++ corresponds to Efficacy between 100 and 50)	< 5.30
CCN(CC)c1nc(C(N)=O)cc(-c2ccc(OC(F)(F)F)cc2)n1 [Compound 29]	++ (++ corresponds to Efficacy between 100 and 50)	> 6.00
CCCNc1nc(C(N)=O)cc(-c2ccccc2)n1 [Compound 30]	++ (++ corresponds to Efficacy between 100 and 50)	< 5.30
COc1ccc(-c2cc(C(N)=O)nc(N(C)C)n2)cc1 [Compound 31]	+ (+ corresponds to Efficacy less than 50)	< 5.30
Cc1cccc(-c2cc(C(N)=O)nc(N3CCCCC3)n2)c1 [Compound 32]	++ (++ corresponds to Efficacy between 100 and 50)	< 5.30
NC(=O)c1cc(-c2ccccc2)nc(N2CCSCC2)n1 [Compound 33]	+++ (+++ corresponds to Efficacy greater than 100)	5.30 to 6.00
CCCN(CC)c1nc(C(N)=O)cc(-c2ccccc2)n1 [Compound 34]	+++ (+++ corresponds to Efficacy greater than 100)	5.30 to 6.00
CCN(CC)c1nc(C(N)=O)cc(-c2cccc(C(=O)OC)c2)n1 [Compound 35]	+++ (+++ corresponds to Efficacy greater than 100)	> 6.00
CNC(=O)c1cc(-c2ccccc2)nc(N2CCCCCC2)n1 [Compound 36]	+ (+ corresponds to Efficacy less than 50)	5.30 to 6.00
NC(=O)c1cc(-c2ccccc2)nc(N2CCC(Cc3ccccc3)CC2)n1 [Compound 37]	++ (++ corresponds to Efficacy between 100 and 50)	< 5.30
CN(CCc1ccccc1)c1nc(C(N)=O)cc(-c2ccccc2)n1 [Compound 38]	+++ (+++ corresponds to Efficacy greater than 100)	5.30 to 6.00
CCCN(CC1CC1)c1nc(C(N)=O)cc(-c2ccccc2OC)n1 [Compound 39]	+++ (+++ corresponds to Efficacy greater than 100)	< 5.30
Cc1ccc(-c2cc(C(N)=O)nc(N3CCCCC3)n2)cc1C [Compound 40]	++ (++ corresponds to Efficacy between 100 and 50)	< 5.30
CNC(=O)c1cc(-c2ccccc2)nc(NCC2CC2)n1 [Compound 41]	+ (+ corresponds to Efficacy less than 50)	< 5.30
NC(=O)c1cc(-c2ccccc2)nc(N2CCC(O)(c3ccc(Cl)cc3)CC2)n1 [Compound 42]	+ (+ corresponds to Efficacy less than 50)	< 5.30
NC(=O)c1cc(-c2ccccc2)nc(N2CCCC(CO)C2)n1 (stereo not shown) [Compound 43]	+ (+ corresponds to Efficacy less than 50)	< 5.30
NC(=O)c1cc(-c2ccccc2)nc(N2CCC3(CC2)OCCO3)n1 [Compound 44]	++ (++ corresponds to Efficacy between 100 and 50)	< 5.30
